Data on six compounds can be found in patent US8883718B2, “Treating cancer” (Theryte Limited, priority 2008, dated 2014).

Series [1] relates to MGHU-1 Human transitional bladder cancer cells. Kind of series: in-vitro culture of MGHU-1 bladder cancer cells, cell death observed morphologically. In kind it is cell-based. As for the experimental part:
(§1) Normal diploid human fibroblasts in short term culture were unaffected (FIG. 2b). […] However, PRGPRP (SEQ ID NO: 2) is only effective at killing RT112 bladder cancer cells at a concentration of 5.0 mM. Because of concern that such high peptide doses might cause artefactual, non-specific effects, structure/function studies were carried out.
5 mM was required to produce 100% lethality in in vitro experiments on RT 112 (FIG. 2a) or MGHU-1 human bladder cancer cells. This limits the applicability of PRGPRP (SEQ ID NO: 2) to therapy even though it has selected killing activity in human cancer cells but not normal human fibroblasts.

The subject of series [2] is RT112 human bladder cancer cells. The series is described as follows: clonogenic assay on RT112 cells. In kind it is cell-based. As for the experimental part:
as §1
(§2) The first experiments were carried out on cyc-[[…]] (THR 53, (SEQ ID NO: 9)), see FIG. 4. Whilst the 96 well assays described in Example 3 are suitable for initial screening of small amounts of peptide material the long incubation periods in dense culture do themselves compromise cell viability to some extent. […] In clonogenic assays, (previously described by Warenius et al Br J Cancer (2000) 83(8), 1048-1059) single cell suspensions of 100 cells are plated in plentiful volumes of 2 ml of Ham's F12 tissue culture medium supplemented with 10% FCS and incubated for 15, 20 or 25 days. A high percentage of the plated cells (40-60% in the case of H460) go through repeated doublings to yield colonies of 200 or more cells which can be easily visualized by the naked eye and counted under a low power lens when stained by giemsa stain.

The subject of series [3] is H460 human non-small cell lung cancer cells. The series is described as follows: clonogenic assay on H460 cells. In kind it is cell-based. How it is done: as §2
The efficacy of THR53 was compared to Ac-PRGPRP-NH2 (SEQ ID NO: 2) using a clonogenic assay.

The subject of series [4] is Cdk1 compared to Cdk4 in RT112 cells. Kind of series: sequential Western blots of RT112 cells after peptide exposure. In kind it is cell-based, human. To be noted: over 15 days. From the text:
Peptides were introduced at day 0 and left in-situ throughout the experiment.
(§3) In a clinical context this might provide a biomarker of therapeutic efficacy. […] Such a homogeneous therapeutic response is in marked contrast to the wide range of variability in dose response of different cancer cell lines seen with conventional chemotherapeutic agents^24. Cancer cells both underwent successful mitosis and died (FIG. 3f) or died in interphase (FIG. 7d). […] MRC-hTERT fibroblasts (FIG. 7c) and short term cultures of normal diploid human keratinocytes (FIG. 3h) were not killed by 200 μM THR53.

The test system of series [5] is Normal diploid human fibroblasts. The series is described as follows: normal diploid human fibroblasts in short term culture. In kind it is cell-based. How it is done: as §1
Series [6] concerns normal diploid human keratinocytes. Kind of series: normal keratinocyte cultures exposed to THR53. In kind it is cell-based. The following applies: 200 μM. How it is done: FIGS. 7(g), (h), (i,) and (j) show established cultures of H460 human non-small cell lung cancer cells (i, j) and normal diploid human keratinocytes (g, h) in the presence and absence of THR53. 10^4 tumor or keratinocyte cells were plated in 2.5 cm diameter tissue culture wells and 5 days later vehicle (g, i) or 200 μM THR53 (SEQ ID NO: 9) (h, j) were added. Further incubation was carried out for 7 days.
as §3

Series [7] concerns Eleven human cancer cell lines covering a wide range of histologies. The series is described as follows: eleven human cancer cell lines exposed to THR53 (morphology and clonogenic assays). To be noted: 200 μM. In kind it is cell-based. How it is done:
as §3

Series [8] has as its system MRC-hTERT immortalized normal human fibroblasts. Kind of series: MRC-hTERT fibroblasts exposed to THR53. In kind it is cell-based. To be noted: 200 μM. As for the experimental part:
FIGS. 7(c), (d) and (e) show time lapse photomicrographs of H460 human non-small cell lung cancer cells and MRC-hTERT immortalized normal human fibroblasts growing in tissue culture following exposure to 200 μM THR53 (SEQ ID NO: 9) (d, e) and untreated control H460 cells (c). Magnification ×10.
as §3

In series [9] the test system is MGHU-1 Human transitional bladder cancer cells. The following applies: cited from earlier work.
For series [10], the system named is normal human diploid fibroblasts. Kind of series: MTS cell viability assay, fibroblasts. In kind it is cell-based. The following applies: 12.5 to 100 μM, 2-4 weeks. How it is done: (§4) The effect of these peptides was tested on both human fibroblasts and H460 human non-small cell […] cancer cells at doses in the range 12.5 to 100 μM. The peptides were tested in vitro by exposure to 100 H460 human non-small cell lung cancer cells, or short term cultures of normal human diploid fibroblasts, in 200 ul of Ham's F12 tissue culture medium supplemented with 10% FCS. Cells were set up in 100 ul on day 0 and 24 hours later a further 100 ul of the same medium containing ×2 the appropriate concentration of peptide over a range of 12.5-100 uM was added. The cells were then incubated at 37° C., 5% CO2 in an humidified incubator for 2-4 weeks.
(§5) Cell viability was measured by an MTS assay (CellTiter 96^R Non-Radioactive Cell Proliferation Assay. Promega Corporation, 2800 Woods Hollow Road, Madison Wis. 53711-5399 USA). The original form of this assay was described by Mosmann (J. Immunol. Meth. 65; 55-63. 1983) and gives a colorometric reading whose intensity depends on the conversion, by viable cells, of a tetrazolium salt into a coloured formazan which is easily quantified by colorimetric reading of a 96 well assay plate.
Background: Tetrazolium assays rely on reduction of a dye to a coloured formazan, in cell work by metabolically active cells.

Series [11] concerns H460 human non-small cell lung cancer cells. Kind of series: MTS cell viability assay, H460 cells. To be noted: H460, 12.5 to 100 μM, 2-4 weeks. In kind it is cell-based. How it is done:
as §4, §5

The subject of another series is human cancer cells. Kind of series: clonogenic assays of human cancer cells exposed to PRGPRP motif in cyclic amphiphilic cassettes. In kind it is cell-based. The following applies: FIG. 6i. How it is done:
FIGS. 6(h) and (i) show clonogenic assays of human cancer cells exposed to the PRGPRP (SEQ ID NO: 2) motif in cyclic amphiphlic cassettes. THR53 (SEQ ID NO: 9, cyc-[[…]]); THR53C (SEQ ID NO: 23, cyc-[[…]], a control peptide); THR54 (SEQ ID NO: 10, cyc-[[…]]); THR79 (SEQ ID NO: 11, cyc-[PRGPRPvalklalklal]).
as §2
The effectiveness of cyclic peptides comprising amphiphilic sequences is further illustrated in FIGS. 6h and 6i, showing the results of a clonogenic assay using the peptides THR53 cyc-[[…]] (SEQ ID NO: 9); THR53C, cyc-[[…]] […]

Entries after “also recorded” stand apart in the source; their conditions may differ. Where a SMILES comes first, the peptide text is derived from it.

As for “Ac-Pro-Arg-Gly-Pro-Arg-Pro-NH2 (Ac-PRGPRP-NH2) [end-capped hexameric peptide according to WO2005/123760]”, the “cell death observed morphologically in-vitro” value in [1] (5.0 mM, 25 days after exposure) is “Complete cell death”. Moreover, in series [1] (MGHU-1, in vitro), the “concentration required to produce 100% lethality” value is 5 mM. In addition, in series [2] (RT112), the “cancer cell lethality / activity in clonogenic assay” value is “Cancer cell lethality was confirmed” and the “concentration effective at killing RT112 bladder cancer cells” value stood at 5.0 mM. Further, the “concentration required to produce 100% lethality” value in [2] (RT 112, in vitro) worked out at 5 mM. Besides, the “effect on H460 cell survival in clonogenic assay” value in [3] (1 to 10 mM concentration) is given as “limited effect”. Further, the “effect on H460 non-small cell lung cancer, clonogenic assay” value in series [3] (H460) is given as “no effect”. In series [4], the “change in Cdk1 compared to Cdk4” value is recorded as “Progressive increase”. In series [5] (5.0 mM), the “effect on normal diploid human fibroblasts in short term culture” value is recorded as “unaffected”.
With `CC(C)C[C@@H]1NC(=O)[C@H](C)NC(=O)[C@H](CC(C)C)NC(=O)[C@H](CCCCN)NC(=O)[C@H](C(C)C)NC(=O)[C@@H]2CCCN2C(=O)[C@H](CCCNC(=N)N)NC(=O)[C@@H]2CCCN2C(=O)CNC(=O)[C@H](CCCNC(=N)N)NC(=O)[C@@H]2CCCN2C(=O)[C@@H]2CCCN2C(=O)[C@H](Cc2ccccc2)NC(=O)[C@H](CCCCN)NC(=O)[C@H](CC(C)C)NC(=O)[C@H](C)NC(=O)[C@H](CC(C)C)NC(=O)[C@H](CCCCN)NC1=O` [THR53] (cyclo(ALKFPPRGPRPVKLALKL)), in series [6], the “killing of normal diploid human keratinocytes in short term culture” value is listed as “not killed”. In addition, the “mode of cancer cell death” value in series [7] is “no features of apoptosis”. Besides, the “response / lethality in clonogenic assays” value in series [7] (15 days after exposure, eleven human cancer cell lines) was “complete lethality; also recorded: complete response”. Moreover, the “killing of MRC-hTERT fibroblasts” value in series [8] is on record as “not killed”. The “lethality on H460 non-small cell lung cancer cells” value in [3] (100 uM, no colonies visible) is given as 100%. In addition, in [3] (drug concentrations 10 to 100 μM), the “H460 cell survival in clonogenic assay” value is listed as “significantly decreased”.
Take “cyc-[PRGPRPVPRGPRPVPRGPRPV] (cyclic; Cyclic peptide; /note=“cyclic peptide”) [cyclic peptide disclosed in WO2005/123760]”: in series [1], the “killing of MGHU1 cells” value is listed as “did not kill”. Further, the “effect on normal fibroblasts” value in [5] is on record as “markedly stimulate”. For the same compound, in [9], the “effect on MGHU1 cells as disclosed in WO2005/123760” value is given as “caused morphological changes”.
Turning to “Ac-PRGPRPVKLALKLALKAL-NH2 [THR51, linear peptide outside the scope of the invention]”, the “killing of fibroblasts (cell viability, MTS)” value in [10] was “equally as well killed”. In addition, the “cancer cell killing (cell viability, MTS)” value in series [11] was “improvement in cancer cell killing over PRGPRP”.
“cyc-[FPPRRPGPVKLALKLALK] (cyclic; Control peptide; /note=“cyclic peptide”) [THR53C, a control peptide]”: the “arginine-related structure function relationship in cyclic amphiphilic compounds (control peptide)” value in the series on human cancer cells was “structure function relationship was retained”.
Turning to “Ac-Pro-Arg-Arg-Pro-Gly-Pro-NH2 (Ac-PRRPGP-NH2)”, the “cancer cell lethality / activity in clonogenic assay” value in [2] (RT112) is “inactive”. Also, in series [4], the “change in Cdk1 compared to Cdk4” value is given as “not seen”.
